From PMC7534274 (Journal of Enzyme Inhibition and Medicinal Chemistry, 2020) come the findings set out here.

One test deals with T1, hCA II (Homo sapiens, UniProt P00918).
T1 construct: gene CA2; recombinant, obtained in-house; cytosolic isoform
Kind of test: stopped-flow CO2 hydrase assay. It is filed as biochemical. To be noted: read-out: hCA I. From the text: stopped-flow CO2 hydrase assay on hCA II

A further test concerns the target T2, hCA IX (Homo sapiens, UniProt Q16790).
T2 construct: gene CA9; recombinant, obtained in-house; tumour-associated isoform
Kind of test: stopped-flow CO2 hydrase assay. It is filed as biochemical. From the text: stopped-flow CO2 hydrase assay on hCA IX

The target of another test is T3, hCA XII (Homo sapiens, UniProt O43570).
T3 construct: gene CA12; recombinant, obtained in-house; tumour-associated isoform
T3 sequence (O43570 25-354 limits assumed): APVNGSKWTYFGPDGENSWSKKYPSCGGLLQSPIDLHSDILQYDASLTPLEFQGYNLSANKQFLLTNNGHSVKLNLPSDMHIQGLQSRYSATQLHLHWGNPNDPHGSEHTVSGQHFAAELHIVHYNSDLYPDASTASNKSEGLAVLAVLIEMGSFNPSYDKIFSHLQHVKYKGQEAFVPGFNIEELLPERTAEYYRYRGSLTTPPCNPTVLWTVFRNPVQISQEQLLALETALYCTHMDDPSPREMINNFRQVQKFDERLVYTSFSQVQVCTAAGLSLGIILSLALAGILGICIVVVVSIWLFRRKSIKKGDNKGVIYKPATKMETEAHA
In words: stopped-flow CO2 hydrase assay. The class given is biochemical. Conditions: […] HEPES pH […] Na2SO4, CO2 substrate; […] h preincubation. From the text: (§1) stopped-flow CO2 hydrase assay on hCA XII

Another test has as its target T4, hCA VII (Homo sapiens, UniProt P43166).
T4 construct: gene CA7; recombinant, obtained in-house; cytosolic isoform
In words: stopped-flow CO2 hydrase assay. The class given is biochemical. Conditions: read-out: hCA I. The text has this:
stopped-flow CO2 hydrase assay on hCA VII

A further test has as its target T5, hCA I (Homo sapiens, UniProt P00915).
T5 construct: gene CA1; recombinant, obtained in-house; cytosolic isoform
Kind of test: stopped-flow CO2 hydrase assay. It is filed as biochemical. From the text: stopped-flow CO2 hydrase assay on hCA I

Test [1] in a line: stopped-flow CO2 hydrase assay. The class given is biochemical, Homo sapiens. To be noted: read-out: hCA I.
Excerpt: as §1

[2] abbreviates: […] HEPES pH […] Na2SO4, CO2 substrate, […] h preincubation.

Where two headings read alike, the source gives them in different places.

T4 sequence (P43166 whole entry, canonical isoform): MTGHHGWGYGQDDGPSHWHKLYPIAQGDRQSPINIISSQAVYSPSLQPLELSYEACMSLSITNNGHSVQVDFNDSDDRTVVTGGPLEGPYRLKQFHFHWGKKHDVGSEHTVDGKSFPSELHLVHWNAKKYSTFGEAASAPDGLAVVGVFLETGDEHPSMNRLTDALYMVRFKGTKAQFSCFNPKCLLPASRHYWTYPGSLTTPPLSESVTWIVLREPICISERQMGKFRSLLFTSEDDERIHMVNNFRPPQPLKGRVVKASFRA
T5 sequence (P00915 2-261): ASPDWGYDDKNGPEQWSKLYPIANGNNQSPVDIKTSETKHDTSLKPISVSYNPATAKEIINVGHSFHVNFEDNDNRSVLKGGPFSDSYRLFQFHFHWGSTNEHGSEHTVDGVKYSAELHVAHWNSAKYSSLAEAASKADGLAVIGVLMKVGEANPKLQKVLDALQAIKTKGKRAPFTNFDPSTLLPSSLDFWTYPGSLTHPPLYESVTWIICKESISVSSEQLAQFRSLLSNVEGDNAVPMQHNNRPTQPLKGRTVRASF

For `O=C(Cc1ccccc1Nc1c(Cl)cccc1Cl)NCCOc1ccc2oc(=O)ccc2c1` [compound 1, 6-substituted coumarin containing diclofenac], the Ki at hCA II is above 10000 nM; at hCA IX (setting [2]) it was 28.9 nM; at hCA XII, 92.6 nM; on hCA VII, above 10000 nM; on hCA I, above 10000 nM.

As to `CC(C(=O)NCCOc1ccc2oc(=O)ccc2c1)c1ccc(-c2ccccc2)c(F)c1` (centres unmarked) [compound 2, 6-substituted coumarin containing flurbiprofen], the figures for the Ki at hCA IX (setting [2]), at hCA VII and on hCA I were 23.5 nM, above 10000 nM and above 10000 nM, respectively.

With `O=C(Cc1ccccc1Nc1c(Cl)cccc1Cl)NCCOc1ccc2ccc(=O)oc2c1` [compound 3, 7-substituted coumarin containing diclofenac], the Ki is above 10000 nM at hCA II; 89.7 nM on hCA IX (setting [2]); 80.9 nM on hCA XII; above 10000 nM on hCA VII; above 10000 nM on hCA I.

In the case of `CC(C(=O)NCCOc1ccc2ccc(=O)oc2c1)c1ccc(-c2ccccc2)c(F)c1` (centres unmarked) [compound 4, 7-substituted coumarin containing flurbiprofen], the Ki on hCA II is above 10000 nM; on hCA IX, 159 nM; in test [1] it was above 10000 nM; at hCA VII it was above 10000 nM; on hCA I it was above 10000 nM.

At hCA IX, `NS(=O)(=O)Nc1cccc(S(=O)(=O)NCCC(=O)N2CCN(C(c3ccccc3)c3ccccc3)CC2)c1` [compound 5, benzhydryl piperazine derivative with beta-alanine spacer (meta benzenesulfonamide)] displayed a Ki of 1020 nM.

`NS(=O)(=O)Nc1cccc(S(=O)(=O)N2CCCC(C(=O)N3CCN(C(c4ccc(F)cc4)c4ccc(F)cc4)CC3)C2)c1` (centres unmarked) [compound 6, fluorinated benzhydryl piperazine derivative with nipecotic acid spacer (meta benzenesulfonamide)] showed a Ki on hCA IX of 296 nM.

Consider `NS(=O)(=O)Nc1ccccc1S(=O)(=O)N1CCCC(C(=O)N2CCN(C(c3ccccc3)c3ccccc3)CC2)C1` (centres unmarked) [compound 7, benzhydryl piperazine derivative with nipecotic acid spacer (ortho)], for which, on hCA IX, the Ki was above 10000 nM.

On hCA IX, `NS(=O)(=O)Nc1ccc(S(=O)(=O)N2CCCC(C(=O)N3CCN(C(c4ccccc4)c4ccccc4)CC3)C2)cc1` (centres unmarked) [compound 8, benzhydryl piperazine derivative with nipecotic acid spacer (para)] yielded a Ki of 1410 nM.

For `NS(=O)(=O)Nc1ccc(S(=O)(=O)N2CCCC(C(=O)N3CCN(C(c4ccc(F)cc4)c4ccc(F)cc4)CC3)C2)cc1` (centres unmarked) [compound 9, fluorinated benzhydryl analogue of 8 (para)], at hCA IX, the Ki was 902 nM.
